From US10556907B2 (AbbVie Inc., priority 2015, dated 2020) come the findings set out here.

Assay in all cases: Method 1: intracellular Ca2+ release (FLIPR, Calcium 5) in recombinant CHO-K1 cells
Type in all cases: cell-based

One experiment concerns the target T1, human S1PR1 receptor (Homo sapiens, UniProt P21453).
T1 construct: host or cells: CHO-K1
Particulars: (1): determined with method 1; read-out: S1P1 EC50. The protocol: (§1) Agonistic activity was measured using two different methods, described below.
(§2) Method 1. Intracellular Ca^2+ Release
(§3) Agonist potency and intrinsic activity was assessed by measurement of intracellular Ca^2+ release. Recombinant CHO-K1 cells (Euroscreen, Brussels, Belgium) expressing human S1PR5, S1PR1, S1PR3 or S1PR4 receptors, aequorin, and GTP binding protein Gq/i5 were cultured using a medium containing nutrient mixture F-12 Ham (Sigma-Aldrich) with 10% FBS, and 100 μg/mL gentamicin and equilibrated at 5% CO2.
(§4) 15.000 cells in 20 μL medium were seeded into Biocoat poly-D-Lysine coated 384 well plates (Becton Dickinson #35-6663) and grown to 95% confluency after 24 h.
(§5) Culture medium was replaced by an assay buffer consisting of HBBS with Ca^2+ and Mg^2+ (Invitrogen #14025-050), 20 mmol/L Hepes (Sigma-Aldrich #H-3375), 2.5 mmol/L probenecid (Sigma-Aldrich #P-8761, and 0.1% BSA (Sigma-Aldrich #A-7030) pH 7.4. The Calcium 5 no-wash FLIPR assay kit (Molecular Devices #5000625) was performed as described in the kit instructions. Cells were incubated with Calcium 5 dye for 1 h at 37° C., 5% CO2 in the dark. After 45 min adaptation to RT assessment of agonist stimulation of intracellular Ca^2+ release was performed by addition of test compounds at concentrations obtained by serial dilution. Phospho-fingolimod was used as positive control. Antagonists were pre-incubated for 10 min with cells before addition of the agonist (phospho-fingolimod at EC80). Measurements were performed using a fluorometric imaging plate reader FLIPR® tetra (Molecular Devices). Agonist at the human S1P receptors were characterized by deducing EC50 (potency) values from a nonlinear fit to the measured fluorescence raw data after normalization to the reference agonist (phospho-fingolimod) curve.

The next experiment concerns the target T2, human S1PR3 receptor (Homo sapiens, UniProt Q99500).
T2 construct: host or cells: CHO-K1
Conditions: (1): determined with method 1; read-out: S1P3 EC50. The protocol:
as §1, §2, §3, §4, §5

In another experiment the target is T3, human S1PR5 receptor (Homo sapiens, UniProt Q9H228).
T3 construct: host or cells: CHO-K1
T3 sequence (Q9H228 whole entry): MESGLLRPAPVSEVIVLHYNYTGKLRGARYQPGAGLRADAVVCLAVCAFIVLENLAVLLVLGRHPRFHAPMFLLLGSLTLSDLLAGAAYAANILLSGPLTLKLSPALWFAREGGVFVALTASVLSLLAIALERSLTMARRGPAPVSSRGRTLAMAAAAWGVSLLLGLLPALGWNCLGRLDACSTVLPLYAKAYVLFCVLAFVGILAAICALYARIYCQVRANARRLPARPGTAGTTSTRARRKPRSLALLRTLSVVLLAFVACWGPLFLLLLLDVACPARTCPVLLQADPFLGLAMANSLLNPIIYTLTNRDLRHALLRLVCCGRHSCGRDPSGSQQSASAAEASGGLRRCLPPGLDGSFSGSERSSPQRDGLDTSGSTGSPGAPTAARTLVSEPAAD
Particulars: agonist potency, determined with method 1 (symbols A-D); read-out: S1P5 EC50 range. The protocol: as §1, §2, §3, §4, §5

SMILES strings stand for the structures.

T2 sequence (Q99500 whole entry): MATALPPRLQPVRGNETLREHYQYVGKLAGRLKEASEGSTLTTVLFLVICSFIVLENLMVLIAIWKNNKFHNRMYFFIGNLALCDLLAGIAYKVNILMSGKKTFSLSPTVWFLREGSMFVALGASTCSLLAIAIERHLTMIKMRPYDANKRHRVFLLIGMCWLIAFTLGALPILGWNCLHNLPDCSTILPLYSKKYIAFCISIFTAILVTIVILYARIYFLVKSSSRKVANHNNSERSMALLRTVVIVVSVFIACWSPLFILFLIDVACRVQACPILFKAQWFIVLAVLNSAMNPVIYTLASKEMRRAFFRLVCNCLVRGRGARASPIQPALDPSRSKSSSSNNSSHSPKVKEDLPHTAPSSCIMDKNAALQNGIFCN
T1 sequence (P21453 whole entry): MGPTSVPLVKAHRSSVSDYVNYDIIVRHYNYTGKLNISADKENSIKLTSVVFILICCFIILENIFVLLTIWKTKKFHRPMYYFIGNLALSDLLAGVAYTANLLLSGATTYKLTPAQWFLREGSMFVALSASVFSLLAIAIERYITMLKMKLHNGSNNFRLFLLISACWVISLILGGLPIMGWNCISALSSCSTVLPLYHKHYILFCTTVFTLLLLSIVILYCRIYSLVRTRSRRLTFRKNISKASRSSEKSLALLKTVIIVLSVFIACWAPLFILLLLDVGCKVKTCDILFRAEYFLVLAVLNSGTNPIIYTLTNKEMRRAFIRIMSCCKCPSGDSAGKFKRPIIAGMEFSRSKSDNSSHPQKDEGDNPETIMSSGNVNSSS

Consider `O=C(O)CCCN1CCc2nc(-c3ccc(OCc4cccc(Cl)c4)cc3)ncc2C1` [Compound 38, 4-(2-(4-((3-chlorobenzyl)oxy)phenyl)-7,8-dihydropyrido[4,3-d]pyrimidin-6(5H)-yl)butanoic acid], for which the EC50 at human S1PR1 receptor is over 1000 nM; on human S1PR3 receptor it was over 1000 nM; at human S1PR5 receptor it was under 10 nM.

With `CC(CC(=O)O)N1CCc2nc(-c3ccc(OCc4cccc(F)c4)cc3)ncc2C1` (stereo not drawn) [Compound 41, 3-(2-(4-((3-fluorobenzyl)oxy)phenyl)-7,8-dihydropyrido[4,3-d]pyrimidin-6(5H)-yl)butanoic acid], the EC50 on human S1PR1 receptor was over 1000 nM; on human S1PR3 receptor it was over 1000 nM; on human S1PR5 receptor, under 10 nM.

In the case of `CC(CC(=O)O)N1CCc2nc(-c3ccc(OCc4ccc(F)c(F)c4)cc3)ncc2C1` (stereo not drawn) [Compound 42, 3-(2-(4-((3,4-difluorobenzyl)oxy)phenyl)-7,8-dihydropyrido[4,3-d]pyrimidin-6(5H)-yl)butanoic acid], the EC50 was over 1000 nM at human S1PR1 receptor, over 1000 nM on human S1PR3 receptor and under 10 nM at human S1PR5 receptor.

Take `CC(CC(=O)O)N1CCc2nc(-c3ccc(OCc4cccc(Cl)c4)cc3)ncc2C1` (stereo not drawn) [Compound 43, 3-(2-(4-((3-chlorobenzyl)oxy)phenyl)-7,8-dihydropyrido[4,3-d]pyrimidin-6(5H)-yl)butanoic acid]: the results for the EC50 at human S1PR1 receptor, at human S1PR3 receptor and at human S1PR5 receptor were over 1000 nM, over 1000 nM and 100 to 1000 nM, respectively.

Consider `CC(CC(=O)O)N1CCc2nc(-c3ccc(OCc4ccc(Cl)cc4)cc3)ncc2C1` (stereo not drawn) [Compound 44, 3-(2-(4-((4-chlorobenzyl)oxy)phenyl)-7,8-dihydropyrido[4,3-d]pyrimidin-6(5H)-yl)butanoic acid], for which the EC50 at human S1PR1 receptor was over 1000 nM; at human S1PR3 receptor, over 1000 nM; on human S1PR5 receptor it was 10 to 100 nM.

As for `CC(C)Oc1ccc(-c2ncc3c(n2)CCN(CCCC(=O)O)C3)cc1` [Compound 46, 4-(2-(4-isopropoxyphenyl)-7,8-dihydropyrido[4,3-d]pyrimidin-6(5H)-yl)butanoic acid], the EC50 was over 1000 nM at human S1PR1 receptor, over 1000 nM on human S1PR3 receptor and 1000 to 10000 nM on human S1PR5 receptor.

Consider `CC(C)Oc1ccc(-c2ncc3c(n2)CCN(CCCC(=O)O)C3)cc1Cl` [Compound 47, 4-(2-(3-chloro-4-isopropoxyphenyl)-7,8-dihydropyrido[4,3-d]pyrimidin-6(5H)-yl)butanoic acid], for which the EC50 at human S1PR1 receptor was over 1000 nM; on human S1PR3 receptor, over 1000 nM; at human S1PR5 receptor, 1000 to 10000 nM.

In the case of `O=C(O)CCCN1CCc2nc(C#Cc3ccccc3)ncc2C1` [Compound 48, 4-(2-(phenylethynyl)-7,8-dihydropyrido[4,3-d]pyrimidin-6(5H)-yl)butanoic acid], the EC50 at human S1PR1 receptor is over 1000 nM; at human S1PR3 receptor, over 1000 nM; on human S1PR5 receptor, 1000 to 10000 nM.

For the molecule `O=C(O)CCCN1CCc2nc(C#Cc3cc(F)ccc3F)ncc2C1` [Compound 49, 4-(2-((2,5-difluorophenyl)ethynyl)-7,8-dihydropyrido[4,3-d]pyrimidin-6(5H)-yl)butanoic acid], the EC50 is over 1000 nM at human S1PR1 receptor, over 1000 nM at human S1PR3 receptor and 1000 to 10000 nM at human S1PR5 receptor.

On to `O=C(O)CCN1CCc2nc(-c3ccc(OCc4ccccc4)cc3)ncc2C1` [Compound 67, 3-(2-(4-(benzyloxy)phenyl)-7,8-dihydropyrido[4,3-d]pyrimidin-6(5H)-yl)propanoic acid], for which the EC50 on human S1PR1 receptor is over 1000 nM; at human S1PR3 receptor, over 1000 nM; at human S1PR5 receptor, 10 to 100 nM.

Consider `O=C(O)CCN1CCc2nc(-c3ccc(OCc4cccc(F)c4)cc3)ncc2C1` [Compound 68, 3-(2-(4-((3-fluorobenzyl)oxy)phenyl)-7,8-dihydropyrido[4,3-d]pyrimidin-6(5H)-yl)propanoic acid], for which the EC50 at human S1PR1 receptor was over 1000 nM; on human S1PR3 receptor, over 1000 nM; at human S1PR5 receptor, 10 to 100 nM.

As for `O=C(O)CCN1CCc2nc(-c3ccc(OCc4ccc(F)c(F)c4)cc3)ncc2C1` [Compound 71, 3-(2-(4-((3,4-difluorobenzyl)oxy)phenyl)-7,8-dihydropyrido[4,3-d]pyrimidin-6(5H)-yl)propanoic acid], the EC50 is over 1000 nM at human S1PR1 receptor, over 1000 nM at human S1PR3 receptor and under 10 nM on human S1PR5 receptor.

As to `O=C(O)CCN1CCc2nc(-c3ccc(OCc4cccc(Cl)c4)cc3)ncc2C1` [Compound 72, 3-(2-(4-((3-chlorobenzyl)oxy)phenyl)-7,8-dihydropyrido[4,3-d]pyrimidin-6(5H)-yl)propanoic acid], the EC50 is over 1000 nM on human S1PR1 receptor, over 1000 nM on human S1PR3 receptor and under 10 nM on human S1PR5 receptor.

For the molecule `O=C(O)CCN1CCc2nc(-c3ccc(OCc4ccc(Cl)c(Cl)c4)cc3)ncc2C1` [Compound 73, 3-(2-(4-((3,4-dichlorobenzyl)oxy)phenyl)-7,8-dihydropyrido[4,3-d]pyrimidin-6(5H)-yl)propanoic acid], the EC50 at human S1PR1 receptor is over 1000 nM; on human S1PR3 receptor, over 1000 nM; at human S1PR5 receptor it was under 10 nM.

With `CC(C)Oc1ccc(-c2ncc3c(n2)CCN(CCC(=O)O)C3)cc1` [Compound 75, 3-(2-(4-isopropoxyphenyl)-7,8-dihydropyrido[4,3-d]pyrimidin-6(5H)-yl)propanoic acid], the EC50 was over 1000 nM on human S1PR1 receptor, over 1000 nM at human S1PR3 receptor and 1000 to 10000 nM on human S1PR5 receptor.

Turning to `O=C(O)CCN1CCc2nc(-c3ccc(OCc4cccc(C(F)F)c4)cc3)ncc2C1` [Compound 76, 3-(2-(4-((3-difluoromethylbenzyl)oxy)phenyl)-7,8-dihydropyrido[4,3-d]pyrimidin-6(5H)-yl)propanoic acid], the EC50 on human S1PR1 receptor is over 1000 nM; on human S1PR3 receptor it was over 1000 nM; on human S1PR5 receptor it was under 10 nM.

For the molecule `O=C(O)CCN1CCc2nc(-c3ccc(OCc4ccc(C(F)F)cc4)cc3)ncc2C1` [Compound 77, 3-(2-(4-((4-difluoromethylbenzyl)oxy)phenyl)-7,8-dihydropyrido[4,3-d]pyrimidin-6(5H)-yl)propanoic acid], the figures for the EC50 on human S1PR1 receptor, on human S1PR3 receptor and at human S1PR5 receptor were over 1000 nM, over 1000 nM and under 10 nM, respectively.

As for `O=C(O)CCN1CCc2nc(-c3ccc(OCc4ccccc4C(F)F)cc3)ncc2C1` [Compound 78, 3-(2-(4-((2-difluoromethylbenzyl)oxy)phenyl)-7,8-dihydropyrido[4,3-d]pyrimidin-6(5H)-yl)propanoic acid], the EC50 was over 1000 nM on human S1PR1 receptor, over 1000 nM on human S1PR3 receptor and under 10 nM on human S1PR5 receptor.

With `CC(C)Oc1ccc(-c2ncc3c(n2)CCN(CCC(=O)O)C3)cc1Cl` [Compound 79, 3-(2-(3-chloro-4-isopropoxyphenyl)-7,8-dihydropyrido[4,3-d]pyrimidin-6(5H)-yl)propanoic acid], the EC50 at human S1PR1 receptor was over 1000 nM; at human S1PR3 receptor, over 1000 nM; at human S1PR5 receptor, 1000 to 10000 nM.

For `CSc1ccc(COc2ccc(-c3ncc4c(n3)CCN(CCC(=O)O)C4)cc2)cc1` [Compound 80, 3-(2-(4-((4-(methylthio)benzyl)oxy)phenyl)-7,8-dihydropyrido[4,3-d]pyrimidin-6(5H)-yl)propanoic acid], the EC50 on human S1PR1 receptor was over 1000 nM; on human S1PR3 receptor, over 1000 nM; on human S1PR5 receptor, under 10 nM.

Regarding `O=C(O)CCN1CCc2nc(-c3ccc(OCc4ccc(C(F)(F)F)cc4)cc3)ncc2C1` [Compound 81, 3-(2-(4-((4-(trifluoromethyl)benzyl)oxy)phenyl)-7,8-dihydropyrido[4,3-d]pyrimidin-6(5H)-yl)propanoic acid], the EC50 is over 1000 nM at human S1PR1 receptor, over 1000 nM on human S1PR3 receptor and under 10 nM on human S1PR5 receptor.

On to `O=C(O)CCN1CCc2nc(-c3ccc(OCc4ccccc4OC(F)(F)F)cc3)ncc2C1` [Compound 84, 3-(2-(4-((2-(trifluoromethoxy)benzyl)oxy)phenyl)-7,8-dihydropyrido[4,3-d]pyrimidin-6(5H)-yl)propanoic acid], for which the values for the EC50 on human S1PR1 receptor, at human S1PR3 receptor and on human S1PR5 receptor were over 1000 nM, over 1000 nM and 10 to 100 nM, respectively.

For the molecule `O=C(O)CCN1CCc2nc(-c3ccc(OCc4cccc(C(F)(F)F)c4)cc3)ncc2C1` [Compound 86, 3-(2-(4-((3-(trifluoromethyl)benzyl)oxy)phenyl)-7,8-dihydropyrido[4,3-d]pyrimidin-6(5H)-yl)propanoic acid], the EC50 at human S1PR1 receptor is over 1000 nM; at human S1PR3 receptor, over 1000 nM; at human S1PR5 receptor, under 10 nM.

Take `O=C(O)CCN1CCc2nc(-c3ccc(OCc4ccccc4OC(F)F)cc3)ncc2C1` [Compound 90, 3-(2-(4-((2-(difluoromethoxy)benzyl)oxy)phenyl)-7,8-dihydropyrido[4,3-d]pyrimidin-6(5H)-yl)propanoic acid]: the EC50 is over 1000 nM on human S1PR1 receptor, over 1000 nM on human S1PR3 receptor and 10 to 100 nM on human S1PR5 receptor.

As usually defined, the EC50 is the concentration giving half of the maximal effect.
